Two compounds from patent US9060966B2, “Use of 2,5-dihydroxybenzene derivatives for the treatment of arthritis and pain” (priority 2006, dated 2015) can be followed below.

Structures are written as SMILES. “Also recorded” adds a separate entry of the source.

One assay deals with Leishmania major. Put plainly: Experimental infection with Leishmania major in a mouse model (paw thickness). Type of assay: in vivo, mice. The text has this: The vehicle group consisted of infected animals that received daily injections of saline (0.9% NaCl) during the same period as DHBS. Results are expressed as the mean±the standard deviation of the increases in size of the inoculated paw (right) compared to the non-inoculated paw (left) in mm obtained with a Vernier caliper each week from 0 to 10. ** indicates p<0.01 vs. the vehicle-treated group by a Student t-test. 6 animals were used for each group.
The vehicle group consisted of infected animals that received daily injections of saline (0.9% NaCl) from the moment of the infection, while the control group consisted of non-infected animals. Results are expressed as the mean±the standard deviation of the increases in size of the inoculated paw (right) compared to the non-inoculated paw (left) in mm obtained with a Vernier caliper each week from 0 to 9. * indicates p<0.05 vs. the vehicle group by a Student t-test. 7 animals were used for each group.
The vehicle group consisted of infected animals that received daily injections of saline (0.9% NaCl) from the third week after the infection. Results are expressed as the mean±the standard deviation of the increases in size of the inoculated paw (right) compared to the non-inoculated paw (left) in mm obtained with a Vernier caliper each week from 0 to 9. * indicates p<0.05 vs. the vehicle group by a Student t-test. 7 animals were used for each group.
This model is based in the massive inoculation of Leishmania promatigotes in the mouse paw pad. Under these conditions, the parasite induces a progressive inflammation correlated with the multiplication of parasites at the site of inoculation. BALB/c strain female mice that developed severe and uncontrolled injuries were used (Foote S J, Handman E. Brief Funct Genomic Proteomic, 2005). This model has been used in pharmacology to monitor the therapeutic capacity of new leishmanicide compounds and the preventive capacity of potential vaccines against leishmaniasis ((Nelson K G et al. Antimicrob Agents Chemother. 2006).
The animals were inoculated with 5×10^6 of L. major promastigotes (strain Hervás) in 50 μL of PBS into the plantar pad of the right back paw. As negative control of the infection, a group of mice inoculated with 50 μL of PBS was used. The sizes of the lesions were measured every 7 days until the animals were sacrificed (week 9) using a Vernier caliper. The thickness of the right back paw (infected) and the left back paw (uninfected) of all the animals was measured at the base of the fifth toe. The progression of the inflammation is represented as the difference in thickness between the infected and the non-infected paws. […]

In another assay the test system is Nakagawa angioblastoma. Put plainly: Topical treatment of Nakagawa angioblastoma (hemangioblastoma) in a child. Type of assay: in vivo, human. Particulars: cream 2.5%, topical twice a day, 1 month, one child. The text has this:
Photographs showing the effects of a topical treatment with a cream comprising 2,5-dihydroxybenzenesulfonic (DHBS) in a child suffering from Nakagawa angioblastoma.
The cream comprising 2,5-dihydroxybenzene sulfonic (2.5%) was topically applied twice a day during 1 month on the face of the child suffering from Nakagawa angioblastoma.

Regarding `CC(=O)Oc1ccc(OC(C)=O)c(S(=O)(=O)[O-])c1.[K+]` [DABS, potassium 2,5-diacetoxybenzene sulfonate], the “size of the lesion (infected vs non-infected paw)” value in the assay on Leishmania major (200 mg/kg/day i.p. from day 0 to week 9, effect from the third week post-infection) is reported as “statistically significant reduction in the size of the lesion”; in the assay on Leishmania major (200 mg/kg/day i.p. from third week after inoculation, effect from the eighth week) it was “significantly smaller; also recorded: Reduction in the size of the lesion”.
As for `O=S(=O)(O)c1cc(O)ccc1O` [DHBS, 2,5-dihydroxybenzenesulfonic acid], the “intensity of the coloration caused by the lesion” value with Nakagawa angioblastoma is “decrease in the intensity of the coloration”; with Nakagawa angioblastoma (listed as 2,5-dihydroxybenzene sulfonic) it was “reduction in the intensity of the reddish coloration”.
